Data set [1] in a line: Cytotoxicity against mouse J774A.1 cells after 72 hrs by MTT assay. The settings on record: J774.1, 72 h. The format is cell-based.
In data set [2] the test system is Leishmania donovani. Description: Antileishmanial activity against promastigote stage of Leishmania donovani MHOM/IN/00/DEVI assessed as inhibition of metabolic activity after 72 hrs by MTT assay. The format is functional, organism-based. The settings on record: for pIC50: Leishmania donovani, MHOM/IN/00/DEVI, 72 h, read-out: IC50.
A short description of data set [3]: (§1) Cytotoxicity against human HepG2 cells after 72 hrs by MTT assay. The format is cell-based. The settings on record: HepG2 cells.
Data set [4] can be described thus: Selectivity index, CC50 for human HepG2 cells to IC50 for promastigote stage of Leishmania donovani MHOM/IN/00/DEVI. Format: functional.
Data set [5] concerns Leishmania donovani. As to the kind of experiment: Antileishmanial activity against intracellular amastigote stage of Leishmania donovani MHOM/IN/00/DEVI infected in human THP1 cells assessed as decrease infected macrophages after 120 hrs by microscopy. The format is functional, organism-based. The settings on record: THP-1, 120 h.
Data set [6] has as its system Leishmania infantum. As to the kind of experiment: Antileishmanial activity against intracellular amastigote stage of Leishmania infantum MHOM/MA/67/ITMAP-263 expressing luciferase infected in mouse J774A1 cells assessed as inhibition of metabolic activity after 120 hrs by luminescence assay. The format is functional, organism-based. The settings on record: MHOM/MA/67/ITMAP-263, J774.A1, 120 h.

Data set [7] concerns HepG2. The description is as §1. Format: cell-based. The settings on record: hepg2, 72 h.
For data set [8], the system named is THP-1. As to the kind of experiment: Cytotoxicity against human THP1 cells after 72 hrs by MTT assay. The settings on record: THP-1, 72 h. The format is cell-based.

Structures are written as SMILES. pEC50, pIC50: −log10 of the molar value.

Compound `COc1cccc2c1C(=O)c1c(O)c3c(c(O)c1C2=O)C[C@@](O)(C(=O)CO)C[C@@H]3O[C@H]1C[C@H](N)[C@H](O)[C@H](C)O1` [DOXORUBICIN] gave a pIC50 in data set [1] of 7.22.
For `CC(C)(C)OCc1cc(=O)[nH]c2c([N+](=O)[O-])cccc12`, the pIC50 in data set [2] is under 4.30. For the same compound, the cytotoxic concentration (CC50) at 72 h in data set [3] amounted to 5.3 µM. In data set [4], the “Ratio CC50/IC50” value is reported as under 0.1.
Regarding `Nc1cccc2ccc(=O)[nH]c12`, in data set [2], the negative-log IC50 (pIC50) was under 4.30. This compound had a cytotoxic concentration (CC50) at 72 h in data set [3] of over 100 µM.
Take `CSc1ccc(OCc2ncc([N+](=O)[O-])n2C)cc1` [FEXINIDAZOLE]: the pEC50 in data set [5] is 5.55.
Consider `COc1cccc(C#Cc2cc(=O)[nH]c3c([N+](=O)[O-])cccc23)c1`, for which the pIC50 in data set [2] was under 5.00. The 50% cytotoxic concentration (CC50) at 72 h in data set [3] is over 10 µM.
In the case of `O=c1cc(-c2ccco2)c2cccc([N+](=O)[O-])c2[nH]1`, the pIC50 in data set [2] was under 5.30. This compound returned a CC50 at 72 h in data set [3] of over 31.3 µM.
As to `O=c1cc(C#CCO)c2cccc([N+](=O)[O-])c2[nH]1`, the pIC50 in data set [2] is 5.62. Also, the half-maximal cytotoxic concentration (CC50) at 72 h in data set [3] is 2.1 µM. The “Ratio CC50/IC50” value in data set [4] was 0.9.
Regarding `N=C(N)c1ccc(OCCCCCOc2ccc(C(=N)N)cc2)cc1` [PENTAMIDINE], the “Ratio CC50/IC50” value in data set [4] amounted to 0.4. The negative-log IC50 (pIC50) in data set [5] is under 4.70; in data set [6], under 4.70; in data set [1], 6.00.
For `O=c1cc(-c2ccc(Cl)cc2)c2cccc([N+](=O)[O-])c2[nH]1`, the pIC50 in data set [2] is 5.38. The midpoint of cytotoxicity in data set [3], the CC50 at 72 h, lay at 16.1 µM. For the same compound, the “Ratio CC50/IC50” value in data set [4] is reported as 3.8.
On to `O=c1cc(-c2cccnc2)c2cccc([N+](=O)[O-])c2[nH]1`, for which the negative logarithm of the IC50 (pIC50) in data set [2] is under 4.30. This compound had a CC50 at 72 h in data set [3] of 10.1 µM. In data set [4], the “Ratio CC50/IC50” value is listed as under 1.
As to `O=c1cc(C#Cc2ccccc2)c2cccc([N+](=O)[O-])c2[nH]1`, in data set [2], the negative-log IC50 (pIC50) was 5.57. In addition, half-maximal cytotoxicity in data set [3] (CC50 at 72 h) was put at 11.6 µM. Also, in data set [4], the “Ratio CC50/IC50” value came out at 4.4.
In the case of `O=c1cc(-c2ccc(F)cc2)c2cccc([N+](=O)[O-])c2[nH]1`, the negative logarithm of the IC50 (pIC50) in data set [2] is 4.55. Moreover, the half-maximal cytotoxic concentration (CC50) at 72 h in data set [3] was found to be 36.1 µM. In addition, in data set [4], the “Ratio CC50/IC50” value was 1.3.
The corresponding values for `O=c1cc(-c2ccccc2)c2cccc([N+](=O)[O-])c2[nH]1` are 4.83, 31.9 µM and 2.2.
As to `O=c1cc(Br)c2cccc([N+](=O)[O-])c2[nH]1`, in data set [2], the pIC50 was 5.02. In data set [3], the CC50 at 72 h came to 27.1 µM.
Turning to `CCCCCCCCCCCCc1cc(=O)[nH]c2c([N+](=O)[O-])cccc12`, the IC50 result in data set [2] is reported as “ND(Insoluble)”. Also, in data set [7], the CC50 result is listed as “ND(Insoluble)”.
For the compound `O=c1cc(C#CCCO)c2cccc([N+](=O)[O-])c2[nH]1`, in data set [2], the pIC50 is 4.66. This compound returned a 50% cytotoxic concentration (CC50) at 72 h in data set [3] of 15.9 µM. Further, in data set [4], the “Ratio CC50/IC50” value stood at 0.7.
The matching figures for `COc1ccc(-c2cc(=O)[nH]c3c([N+](=O)[O-])cccc23)cc1`: 4.55, 37.1 µM and 1.3.
With `Cc1ccc(-c2cc(=O)[nH]c3c([N+](=O)[O-])cccc23)cc1`, the pIC50 in data set [2] was 5.04. Further, in data set [3], it took 31 µM to reach half-maximal cytotoxicity (CC50 at 72 h). For the same compound, in data set [4], the “Ratio CC50/IC50” value was found to be 3.4.
With `C[C@@H]1[C@H](O)[C@@H](C)/C=C/C=C/C=C/C=C/C=C/C=C/C=C/[C@H](O[C@@H]2O[C@H](C)[C@@H](O)[C@H](N)[C@@H]2O)C[C@@H]2O[C@](O)(C[C@@H](O)C[C@@H](O)[C@H](O)CC[C@@H](O)C[C@@H](O)CC(=O)O[C@H]1C)C[C@H](O)[C@H]2C(=O)O` [AMPHOTERICIN B], the negative logarithm of the IC50 (pIC50) in data set [5] was 6.80; in data set [6], 7.22; in data set [1], 5.60; in data set [8] it was 5.08.
In the case of `CCCCCCCCCCCCCCCCOP(=O)([O-])OCC[N+](C)(C)C` [MILTEFOSINE], the pIC50 in data set [5] was 5.17; in data set [6], 5.38; in data set [1], 4.04; in data set [8], 4.39.
For the compound `O=c1cc(-c2cccc(C(F)(F)F)c2)c2cccc([N+](=O)[O-])c2[nH]1`, the negative logarithm of the IC50 (pIC50) in data set [2] was under 5.30. The compound also returned a 50% cytotoxic concentration (CC50) at 72 h in data set [3] of 14.7 µM. Besides, in data set [4], the “Ratio CC50/IC50” value was under 2.9.
Turning to `O=c1cc(-c2ccncc2)c2cccc([N+](=O)[O-])c2[nH]1`, in data set [2], the pIC50 was 4.11. In data set [3], this compound gave a 50% cytotoxic concentration (CC50) at 72 h of 15.7 µM. Besides, the “Ratio CC50/IC50” value in data set [4] stood at 0.2.
Consider `Cc1ccc(-c2cc(=O)[nH]c3c([N+](=O)[O-])cccc23)s1`, for which the pIC50 in data set [2] was under 5.30. Further, the 50% cytotoxic concentration (CC50) at 72 h in data set [3] is over 15.6 µM.
With `O=c1cc(C#CCOc2ccccc2)c2cccc([N+](=O)[O-])c2[nH]1`, the pIC50 in data set [2] was 5.85. Also, the CC50 at 72 h in data set [3] was found to be 1.8 µM. Further, the “Ratio CC50/IC50” value in data set [4] is on record as 1.3.
On to `CCN(CC)CCCCCCNc1cc(OC)cc2c(C)ccnc12` [SITAMAQUINE], for which the pIC50 in data set [5] was 6.00.
`O=c1cc(-c2ccc(C(F)(F)F)cc2)c2cccc([N+](=O)[O-])c2[nH]1`: the pIC50 is 5.21 in data set [2]; under 4.70 in data set [5]; 4.93 in data set [6]; 4.48 in data set [1]; under 4.50 in data set [8]. In addition, it took 42.7 µM to reach half-maximal cytotoxicity in data set [3] (CC50 at 72 h). The “Ratio CC50/IC50” value in data set [4] stood at 7.
For the compound `O=[N+]([O-])c1c(CS(=O)(=O)c2ccccc2)nc2c(Br)cc(Br)cn12`, the pIC50 in data set [5] is 5.26.
As for `O=c1cc(-c2ccc(Br)cc2)c2cccc([N+](=O)[O-])c2[nH]1`, the pIC50 in data set [2] is 5.48; in data set [5] it was under 4.81; in data set [6], under 4.70; in data set [1] it was 5.05; in data set [8], under 4.50. This compound also registered a CC50 at 72 h in data set [3] of over 31.3 µM. For the same compound, the “Ratio CC50/IC50” value in data set [4] is listed as over 9.5.
As for `CCC(O)CC#Cc1cc(=O)[nH]c2c([N+](=O)[O-])cccc12` (stereo not given), in data set [2], the negative logarithm of the IC50 (pIC50) was 4.78. The midpoint of cytotoxicity in data set [3], the CC50 at 72 h, lay at 3.8 µM. The “Ratio CC50/IC50” value in data set [4] stood at 0.2.
Take `O=[N+]([O-])c1cccc2c(Br)cc(Br)nc12`: the negative-log IC50 (pIC50) in data set [2] was under 4.30. The CC50 at 72 h in data set [3] was over 100 µM.
Regarding `O=C(c1cccc([N+](=O)[O-])c1)c1ccc2ccc(/C=C/c3ccc(O)c(O)c3)nc2c1O`, the pIC50 in data set [5] is 5.91.
In the case of `O=c1cc(C#Cc2ccc(Cl)cc2)c2cccc([N+](=O)[O-])c2[nH]1`, the IC50 result in data set [2] is on record as “ND(Insoluble)”. Besides, in data set [7], the half-maximal cytotoxic concentration (CC50) entry is recorded as “ND(Insoluble)”.
`Cc1nc2c(Cl)cccc2c(O)c1CN1CCCCC1C` (stereo not given): the negative logarithm of the IC50 (pIC50) in data set [5] was 7.22.

Source of the values: ChEMBL document CHEMBL3400040, “Antileishmanial pharmacomodulation in 8-nitroquinolin-2(1H)-one series” (Bioorg Med Chem, 2015).
